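Briefly, cells in 96-well plates were exposed to five compound concentrations for 48 h, and endpoints were estimated by linear interpolation. GI50 is the concentration that inhibits growth by half. Definition used: TGI = concentration required for complete inhibition of growth.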
How the values were obtained:
Experiment in all cases: inhibition of tumour cell growth, NCI panel, 48 h
HCC-2998 colon = system: HCC-2998 colon
BT-549 breast = system: BT-549 breast
SK-MEL-5 melanoma = system: SK-MEL-5 melanoma
M14 melanoma = system: M14 melanoma
A498 renal = system: A498 renal
UACC-62 melanoma = system: UACC-62 melanoma
SW-620 colon = system: SW-620 colon
TK-10 renal = system: TK-10 renal
UO-31 renal = system: UO-31 renal
MDA-MB-435 = system: MDA-MB-435
NCI-H23 lung = system: NCI-H23 lung
MOLT-4 leukemia = system: MOLT-4 leukemia
U251 CNS = system: U251 CNS
A549 NSCLC = system: A549 NSCLC
NCI-H522 lung = system: NCI-H522 lung
SK-OV-3 ovarian = system: SK-OV-3 ovarian
HT29 colon = system: HT29 colon
MDA-MB-468 breast = system: MDA-MB-468 breast
EKVX NSCLC = system: EKVX NSCLC
RPMI-8226 leukemia = system: RPMI-8226 leukemia
OVCAR-8 ovarian = system: OVCAR-8 ovarian
SNB-75 CNS = system: SNB-75 CNS
CCRF-CEM leukemia = system: CCRF-CEM leukemia
HCT-15 colon = system: HCT-15 colon
COLO 205 colon = system: COLO 205 colon
CAKI-1 renal = system: CAKI-1 renal
PC-3 prostate = system: PC-3 prostate
NCI-H226 lung = system: NCI-H226 lung
MCF7 breast = system: MCF7 breast

O=C(Nc1ccc(OCc2ccccc2)cc1)Nc1ccc(Cl)c(C(F)(F)F)c1
GI50 (HCC-2998 colon): 2190 nM
TGI (HCC-2998 colon): 29.8 µM
GI50 (BT-549 breast): 1620 nM
TGI (BT-549 breast): 4.68 µM
GI50 (SK-MEL-5 melanoma): 2140 nM
TGI (SK-MEL-5 melanoma): 8.25 µM
GI50 (M14 melanoma): 2170 nM
TGI (M14 melanoma): > 64.3 µM
GI50 (A498 renal): 1240 nM
TGI (A498 renal): 3.9 µM
GI50 (UACC-62 melanoma): 1820 nM
TGI (UACC-62 melanoma): 11 µM
GI50 (SW-620 colon): 2000 nM
TGI (SW-620 colon): 11.2 µM
GI50 (TK-10 renal): 2400 nM
TGI (TK-10 renal): 30.1 µM
GI50 (UO-31 renal): 1600 nM
TGI (UO-31 renal): 5.31 µM
GI50 (MDA-MB-435): 1980 nM
TGI (MDA-MB-435): 27.2 µM
GI50 (NCI-H23 lung): 1500 nM
TGI (NCI-H23 lung): 4.39 µM
GI50 (MOLT-4 leukemia): 2500 nM
TGI (MOLT-4 leukemia): 18.1 µM
GI50 (U251 CNS): 2000 nM
TGI (U251 CNS): 6.59 µM
GI50 (A549 NSCLC): 1830 nM
TGI (A549 NSCLC): 15.2 µM
GI50 (NCI-H522 lung): 1290 nM
TGI (NCI-H522 lung): 3.52 µM
GI50 (SK-OV-3 ovarian): 1810 nM
TGI (SK-OV-3 ovarian): 4.99 µM
GI50 (HT29 colon): 2250 nM
TGI (HT29 colon): 10.2 µM
GI50 (MDA-MB-468 breast): 1420 nM
TGI (MDA-MB-468 breast): 4.12 µM
GI50 (EKVX NSCLC): 1910 nM
TGI (EKVX NSCLC): 7.09 µM
GI50 (RPMI-8226 leukemia): 1690 nM
TGI (RPMI-8226 leukemia): 7.56 µM
GI50 (OVCAR-8 ovarian): 2100 nM
TGI (OVCAR-8 ovarian): 41.3 µM
GI50 (SNB-75 CNS): 1790 nM
TGI (SNB-75 CNS): 6.18 µM
GI50 (CCRF-CEM leukemia): 1690 nM
TGI (CCRF-CEM leukemia): 5.2 µM
GI50 (HCT-15 colon): 2000 nM
TGI (HCT-15 colon): 14 µM
GI50 (COLO 205 colon): 1670 nM
TGI (COLO 205 colon): 4.25 µM
GI50 (CAKI-1 renal): 1610 nM
TGI (CAKI-1 renal): 5.46 µM
GI50 (PC-3 prostate): 1780 nM
TGI (PC-3 prostate): 7.16 µM
GI50 (NCI-H226 lung): 2000 nM
TGI (NCI-H226 lung): 7.03 µM
GI50 (MCF7 breast): 1810 nM
TGI (MCF7 breast): 6.77 µM
